In PubChem BioAssay (NCI):
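Step 1: Grow cells in 96-well plates. Step 2: Expose to compound for 48 hours at 5 concentrations. Step 3: Interpolate endpoints linearly; if unreached, use highest concentration. At the GI50, growth is halved. TGI: total growth inhibition.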

What was measured:
Test in all cases: growth of human tumour cells (NCI), 48 h; in the data active = GI50 below about 0.43 µM; inactive = the rest
786-0 renal = test system: 786-0 renal
A498 renal = test system: A498 renal
A549 NSCLC = test system: A549 NSCLC
ACHN renal = test system: ACHN renal
BT-549 breast = test system: BT-549 breast
CAKI-1 renal = test system: CAKI-1 renal
CCRF-CEM leukemia = test system: CCRF-CEM leukemia
COLO 205 colon = test system: COLO 205 colon
DU-145 prostate = test system: DU-145 prostate
EKVX NSCLC = test system: EKVX NSCLC
HCC-2998 colon = test system: HCC-2998 colon
HCT-116 colon = test system: HCT-116 colon
HCT-15 colon = test system: HCT-15 colon
HL-60(TB) leukemia = test system: HL-60(TB) leukemia
HOP-62 NSCLC = test system: HOP-62 NSCLC
HOP-92 NSCLC = test system: HOP-92 NSCLC
HS 578T breast = test system: HS 578T breast
HT29 colon = test system: HT29 colon
IGROV1 ovarian = test system: IGROV1 ovarian
K-562 leukemia = test system: K-562 leukemia
KM12 colon = test system: KM12 colon
LOX IMVI melanoma = test system: LOX IMVI melanoma
M14 melanoma = test system: M14 melanoma
MALME-3M melanoma = test system: MALME-3M melanoma
MCF7 breast = test system: MCF7 breast
MDA-MB-231 breast = test system: MDA-MB-231 breast
MDA-MB-435 = test system: MDA-MB-435
MOLT-4 leukemia = test system: MOLT-4 leukemia
NCI-H226 lung = test system: NCI-H226 lung
NCI-H23 lung = test system: NCI-H23 lung
NCI-H460 lung = test system: NCI-H460 lung
NCI-H522 lung = test system: NCI-H522 lung
NCI/ADR-RES ovarian = test system: NCI/ADR-RES ovarian
OVCAR-3 ovarian = test system: OVCAR-3 ovarian
OVCAR-4 ovarian = test system: OVCAR-4 ovarian
OVCAR-5 ovarian = test system: OVCAR-5 ovarian
OVCAR-8 ovarian = test system: OVCAR-8 ovarian
PC-3 prostate = test system: PC-3 prostate
RPMI-8226 leukemia = test system: RPMI-8226 leukemia
RXF 393 renal = test system: RXF 393 renal
SF-268 CNS = test system: SF-268 CNS
SF-295 CNS = test system: SF-295 CNS
SF-539 CNS = test system: SF-539 CNS
SK-MEL-28 melanoma = test system: SK-MEL-28 melanoma
SK-MEL-5 melanoma = test system: SK-MEL-5 melanoma
SN12C renal = test system: SN12C renal
SNB-19 CNS = test system: SNB-19 CNS
SNB-75 CNS = test system: SNB-75 CNS
SR leukemia = test system: SR leukemia
SW-620 colon = test system: SW-620 colon
T-47D breast = test system: T-47D breast
TK-10 renal = test system: TK-10 renal
U251 CNS = test system: U251 CNS
UACC-257 melanoma = test system: UACC-257 melanoma
UACC-62 melanoma = test system: UACC-62 melanoma
UO-31 renal = test system: UO-31 renal

O=C(/C=C/c1ccc(O)c(O)c1)NCc1c[nH]c2ccccc12
84.7 µM: TGI (SN12C renal)
> 100 µM: TGI (786-0 renal) | TGI (A498 renal) | TGI (A549 NSCLC) | TGI (ACHN renal) | TGI (BT-549 breast) | TGI (CAKI-1 renal) | TGI (CCRF-CEM leukemia) | TGI (COLO 205 colon) | TGI (DU-145 prostate) | TGI (EKVX NSCLC) | TGI (HCT-116 colon) | TGI (HCT-15 colon) | TGI (HL-60(TB) leukemia) | TGI (HOP-62 NSCLC) | TGI (HOP-92 NSCLC) | TGI (HS 578T breast) | TGI (HT29 colon) | TGI (IGROV1 ovarian) | TGI (K-562 leukemia) | TGI (KM12 colon) | TGI (LOX IMVI melanoma) | TGI (M14 melanoma) | TGI (MALME-3M melanoma) | TGI (MCF7 breast) | TGI (MDA-MB-231 breast) | TGI (MDA-MB-435) | TGI (MOLT-4 leukemia) | TGI (NCI-H226 lung) | TGI (NCI-H23 lung) | TGI (NCI-H460 lung) | TGI (NCI-H522 lung) | TGI (NCI/ADR-RES ovarian) | TGI (OVCAR-3 ovarian) | TGI (OVCAR-4 ovarian) | TGI (OVCAR-5 ovarian) | TGI (OVCAR-8 ovarian) | TGI (PC-3 prostate) | TGI (RPMI-8226 leukemia) | TGI (RXF 393 renal) | TGI (SF-268 CNS) | TGI (SF-295 CNS) | TGI (SF-539 CNS) | TGI (SK-MEL-28 melanoma) | TGI (SK-MEL-5 melanoma) | TGI (SNB-19 CNS) | TGI (SNB-75 CNS) | TGI (SW-620 colon) | TGI (T-47D breast) | TGI (TK-10 renal) | TGI (U251 CNS) | TGI (UACC-257 melanoma) | TGI (UACC-62 melanoma) | TGI (UO-31 renal)
76.1 µM: TGI (HCC-2998 colon)
inactive: GI50 (786-0 renal) 39.7 µM | GI50 (A498 renal) 32.4 µM | GI50 (A549 NSCLC) > 100 µM | GI50 (ACHN renal) 45.8 µM | GI50 (BT-549 breast) 78.5 µM | GI50 (CAKI-1 renal) 27.9 µM | GI50 (CCRF-CEM leukemia) 48.4 µM | GI50 (COLO 205 colon) 49 µM | GI50 (DU-145 prostate) 78.3 µM | GI50 (EKVX NSCLC) 41.5 µM | GI50 (HCC-2998 colon) 35.7 µM | GI50 (HCT-116 colon) 62.2 µM | GI50 (HCT-15 colon) 44.2 µM | GI50 (HL-60(TB) leukemia) 70 µM | GI50 (HOP-62 NSCLC) 44.7 µM | GI50 (HOP-92 NSCLC) > 100 µM | GI50 (HS 578T breast) 73.7 µM | GI50 (HT29 colon) 47.2 µM | GI50 (IGROV1 ovarian) 57.3 µM | GI50 (K-562 leukemia) 68.1 µM | GI50 (KM12 colon) 66.7 µM | GI50 (LOX IMVI melanoma) 60 µM | GI50 (M14 melanoma) 64.8 µM | GI50 (MALME-3M melanoma) 29.2 µM | GI50 (MCF7 breast) 70.3 µM | GI50 (MDA-MB-231 breast) 75.9 µM | GI50 (MDA-MB-435) 41.9 µM | GI50 (MOLT-4 leukemia) 25.8 µM | GI50 (NCI-H226 lung) 71.3 µM | GI50 (NCI-H23 lung) 85.8 µM | GI50 (NCI-H460 lung) 50.1 µM | GI50 (NCI-H522 lung) 44.9 µM | GI50 (NCI/ADR-RES ovarian) > 100 µM | GI50 (OVCAR-3 ovarian) 28.4 µM | GI50 (OVCAR-4 ovarian) > 100 µM | GI50 (OVCAR-5 ovarian) > 100 µM | GI50 (OVCAR-8 ovarian) 56.6 µM | GI50 (PC-3 prostate) 71.3 µM | GI50 (RPMI-8226 leukemia) 57.9 µM | GI50 (RXF 393 renal) > 100 µM | GI50 (SF-268 CNS) 63.8 µM | GI50 (SF-295 CNS) 62.4 µM | GI50 (SF-539 CNS) 38.9 µM | GI50 (SK-MEL-28 melanoma) 58.3 µM | GI50 (SK-MEL-5 melanoma) 32.9 µM | GI50 (SN12C renal) 28.4 µM | GI50 (SNB-19 CNS) > 100 µM | GI50 (SNB-75 CNS) 82.4 µM | GI50 (SR leukemia) 10 µM | GI50 (SW-620 colon) 58.6 µM | GI50 (T-47D breast) > 100 µM | GI50 (TK-10 renal) 18.1 µM | GI50 (U251 CNS) 74 µM | GI50 (UACC-257 melanoma) > 100 µM | GI50 (UACC-62 melanoma) 80.6 µM | GI50 (UO-31 renal) 36.9 µM
37 µM: TGI (SR leukemia)
